Measured values reported in publication PMC3726336, “Product inhibition of cellulases studied with ^14C-labeled cellulose substrates” (Biotechnology for Biofuels, 2013).

Legend:
[1] = biological target: T1, TrCel5A (Trichoderma reesei, UniProt P07982); parameters: method as in doi:10.1016/j.tca.2005.01.025; details: TrCel5A acting on cellohexaose; read-out: Ki value for cellobiose inhibition; cited from earlier work
T1 construct: TrCel7B, TrCel5A, and TrCel12A were purified from the culture filtrate of Tr QM 9414; made in house; host or cells: Trichoderma reesei QM 9414 culture filtrate (native producer)

[2] = biological target: T2, TrCel7A (Trichoderma reesei, UniProt P62694); test: Cellobiose inhibition of MUL hydrolysis by TrCel7A; assay type: biochemical; details: Ki for cellobiose, MUL substrate (5 μM)
T2 construct: TrCel7A was purified from the culture filtrate of Tr QM 9414 as described previously; made in house; host or cells: Trichoderma reesei QM 9414 culture filtrate (native producer)
Excerpt: The cellobiose inhibition of GH7 CBHs is most often studied on low-Mw model substrates. However, it has been shown that the inhibition of CBHs acting on low-Mw substrates appears to be much stronger than that on cellulose substrates. The Ki values for cellobiose inhibition of GH7 CBHs measured on low-Mw substrates are in the micromolar range [44, 51, 52], whereas those measured on cellulose are in the low- to high-millimolar range [28, 31, 32]. […] Unfortunately, the inhibition of this enzyme on cellulose has not been studied. We also studied the cellobiose inhibition of GH7 CBHs acting on MUL. The initial rates of MUL hydrolysis measured in the presence and absence of added cellobiose were first analyzed according to Equation 1, and the IC50 values were found using Equation 2. […] The inhibition of MUL hydrolysis is attributable to the binding of cellobiose to the product sites (+1/+2) of TrCel7A [52]. […]
For the inhibition of enzyme acting on the low-Mw substrate, the initial rates of the hydrolysis of MUL in the presence and absence of added cellobiose were followed. […] Reactions were stopped by the addition of NH3 (final concentration 0.1 M), and the released 4-methylumbelliferone was quantified by fluorescence using excitation and emission wavelengths of 360 nm and 450 nm, respectively.

[3] = tested on: TrCel12A; test: Cellobiose effect on hydrolysis of 14C-amorphous cellulose by TrCel12A; assay type: biochemical, Trichoderma reesei; details: 35°C
Excerpt: EGs are a diverse group of enzymes present in all efficient cellulase systems. Their best recognized function is their synergism with CBHs. Depending on the conditions, the degree of synergistic effect may be more than 10-fold. Therefore, the inhibition of the EG component may result in a drastic decrease in the rate of the synergistic hydrolysis of cellulose. The main soluble product of the EG-catalyzed cellulose hydrolysis is cellobiose, but some glucose and higher-order oligosaccharides are also produced. Here, we studied the cellobiose inhibition of the EGs TrCel7B, TrCel5A and TrCel12A with ^14C-amorphous cellulose substrate. The enzyme concentrations and hydrolysis times were adjusted so that the linear region of the time course was studied. The time courses for the hydrolysis of ^14C-amorphous cellulose by TrCel7B in the presence and absence of added cellobiose are shown in Figure 9A. For the results with TrCel5A and TrCel12A, see Additional file 1: Figure S5. […] This figure is reasonably well in line with that measured for TrCel7B on amorphous cellulose using isothermal titration calorimetry. […]
EGs were assessed on ^14C-amorphous cellulose. ^14C-amorphous cellulose (0.5 g l^-1) was incubated (with shaking at 700 rpm) with EG in 50 mM sodium acetate buffer, pH 5.0, containing BSA (0.1 g l^-1) in the presence and absence of added cellobiose. […]

T2 sequence (P62694 18-513): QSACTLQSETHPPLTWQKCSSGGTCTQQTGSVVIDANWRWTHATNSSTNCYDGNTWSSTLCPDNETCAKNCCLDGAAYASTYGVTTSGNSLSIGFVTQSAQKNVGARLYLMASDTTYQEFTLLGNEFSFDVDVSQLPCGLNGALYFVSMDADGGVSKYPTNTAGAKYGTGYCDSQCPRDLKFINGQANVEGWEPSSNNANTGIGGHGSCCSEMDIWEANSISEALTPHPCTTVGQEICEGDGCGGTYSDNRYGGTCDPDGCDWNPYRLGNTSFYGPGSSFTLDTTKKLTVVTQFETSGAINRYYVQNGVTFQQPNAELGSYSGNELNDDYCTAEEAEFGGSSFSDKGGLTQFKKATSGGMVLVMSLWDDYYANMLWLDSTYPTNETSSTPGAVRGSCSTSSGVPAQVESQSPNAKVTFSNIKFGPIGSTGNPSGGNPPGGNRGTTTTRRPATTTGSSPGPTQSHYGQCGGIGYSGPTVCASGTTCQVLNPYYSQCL
T1 sequence (P07982 22-418): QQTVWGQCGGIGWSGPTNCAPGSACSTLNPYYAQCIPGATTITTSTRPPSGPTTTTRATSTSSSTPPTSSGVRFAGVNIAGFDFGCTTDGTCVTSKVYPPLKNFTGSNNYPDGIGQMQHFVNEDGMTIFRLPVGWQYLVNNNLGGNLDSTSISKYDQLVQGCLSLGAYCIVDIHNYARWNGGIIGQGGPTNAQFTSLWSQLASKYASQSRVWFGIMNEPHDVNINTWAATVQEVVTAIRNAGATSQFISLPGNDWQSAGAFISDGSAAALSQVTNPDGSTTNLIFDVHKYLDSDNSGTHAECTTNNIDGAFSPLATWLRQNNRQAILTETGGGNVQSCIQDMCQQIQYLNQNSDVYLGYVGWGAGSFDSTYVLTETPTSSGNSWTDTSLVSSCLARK

## O=C[C@H](O)[C@@H](O)[C@H](O[C@@H]1O[C@H](CO)[C@@H](O)[C@H](O)[C@H]1O)[C@H](O)CO [cellobiose, Cellobiose]
[1]
  Ki: 424 µM
[2]; 35°C
  Ki: 40 µM
[2]; 50°C
  Ki: 124 µM
[3]; TrCel12A (50 nM), not accountable by Equation 5
  IC50 (approximate, by visual inspection of Figure 9B): few hundred millimolar range
[3]; TrCel12A, 75 mM cellobiose
  Effect of cellobiose on activity: apparent activation
